Data as given in patent US11234982B2, “Methods for treating ocular surface pain” (NOVARTIS AG, priority 2019, dated 2022).

System: cornea
Assay: Esthesiometry assessment (Part 3): corneal sensitivity, anesthetic effect
Assay type: in vivo, human
Conditions: for Anesthetic effect on the cornea (esthesiometry): single eye drop: tetracaine 0.5%, diclofenac 0.1%, compound I 2.5%
Excerpt: Part 3 was an esthesiometry assessment to evaluate the anesthetic properties of compound I. Part 3 of the study had four arms, with compound I, vehicle, tetracaine (0.5% ophthalmic solution, used as a positive control) and diclofenac sodium (0.1% ophthalmic solution, used as the active NSAID comparator). Ocular anesthetic was selected because of its established anesthetic effect; however it is not the standard of care due to its negative effect on wound healing. NSAID is the current standard of care for corneal pain after PRK with minimal anesthetic but significant pain control properties. Vehicle eye drops were used as a negative control to enable better determination of the potential anesthetic effect. Twelve healthy subjects, who met the eligibility criteria, were randomized to receive a single eye drop of 4 study treatments, each during 1 of 4 different study days (Days 1, 4, 7 and 10). Each subject was randomized to receive the study treatment according to one of the following four sequences: • Sequence 1: Anesthetic, NSAID, compound I 2.5%, Vehicle • Sequence 2: NSAID, Vehicle, Anesthetic, compound I 2.5% • Sequence 3: Vehicle, compound I 2.5%, NSAID, Anesthetic • Sequence 4: compound I 2.5%, Anesthetic, Vehicle, NSAID
Inclusion Criteria: • Written informed consent was obtained before any assessment was performed. • Healthy male and female subjects aged 18 to 50 years (inclusive), and in good health as determined by past medical history, physical examination, vital signs, ECG, and laboratory tests at Screening. • At Screening, and Baseline, vital signs (systolic and diastolic blood pressure (BP) and pulse rate) were assessed in the sitting position after the subject had rested for at least 3 minutes and again after 3 minutes in the standing position. […] BMI=Body weight (kg)/[Height (m)]^2 • Subjects who were able to communicate well with the Investigator, to understand and comply with the requirements of the study. • For Part 3, subjects Baseline levels of eye sensitivity were to be in the range of 50 to 60 mm (inclusive) as measured by the Cochet-Bonnet esthesiometer.
The first-in-human study further evaluated potential anesthetic effect of topical ocular 2.5% compound I by esthesiometry testing, i.e. measurement of the filament length (cm) when the threshold of cornea touch is perceived.

| SMILES | Anesthetic effect on the cornea (esthesiometry) | Corneal sensitivity, least squares means, Test vs Ref: vs Diclofenac 0.1% (Tetracaine 0.5% (N=12) vs Diclofenac 0.1% (N=12) at 2.5, 10 and 20 minutes post-dose) | Corneal sensitivity, least squares means, Test vs Ref: vs Vehicle (Tetracaine 0.5% (N=12) vs Vehicle (N=12) at 2.5, 10 and 20 minutes post-dose) |
| --- | --- | --- | --- |
| O=C(O)Cc1ccccc1Nc1c(Cl)cccc1Cl [diclofenac, diclofenac sodium, reference compound] | no anesthetic effect | – | – |
| CCCCNc1ccc(C(=O)OCCN(C)C)cc1 [tetracaine, reference compound] | had an anesthetic effect | statistical and clinical significance were observed | statistical and clinical significance were observed |
